# Experiments:
# [1] = biological target: diheteromeric human GluN1/GluN2B/GluN2B (h2B/h2B) (Homo sapiens, UniProt Q05586+Q13224); assay: Concentration-inhibition curves, oocytes
# C57BL/6J mice = assay: Preestablished morphine tolerance (tolerant mice, tail immersion test); format: in vivo; details: males 10 mg/kg, females 20 mg/kg i.p.
# Source text: We next wanted to assess EU93-108 for effects on other facets of tolerance. Specifically, we were interested in whether EU93-108 could increase tail flick latency in mice that were already tolerant to morphine (i.e., preestablished tolerance). To assess the effect of EU93-108 on preestablished tolerance, five groups were used (n = 8 per group): vehicle/saline, vehicle/morphine, ifenprodil/morphine, EU93-108/saline, and EU93-108/morphine. All groups except for the vehicle/saline control group were administered morphine three times per day (according to the stair stepping protocol outlined in Figure 11) at gradually increasing doses from 25 to 40 mg/kg three times a day at 3–4 h intervals for three consecutive days until tolerance was observed on day 4 (Figure 12, black circles).
# Figure 11 Dosing regimen to assess effects of EU93-108 on tolerant mice. TIT = tail immersion test. All mice received morphine or saline three times a day according to the protocol in Figure 9. Doses of morphine are shown above the arrows, in mg/kg. Once tolerance was established on day 4, the mice were randomly assigned to receive vehicle, EU93-108, or ifenprodil once a day for two consecutive days. […]
# Mouse weights were recorded on the day of each experiment. […] Three recordings were taken for each mouse, and each data point is expressed as the mean of the three recordings. […] The identities were not decoded until the data were analyzed.
# Prism 9.3.1 software (GraphPad, San Diego, CA) was used for all data analysis and visualization. Data for intrinsic antinociception was analyzed using one-way ANOVA and Dunnett’s post hoc test for multiple comparisons where each group was compared to vehicle. Data for acute morphine potentiation experiments were analyzed using one-way ANOVA and Tukey’s post hoc test for multiple comparisons was also used, where each group mean was compared to the mean of every other group. Data for tolerance experiments were analyzed using repeated measures two-way ANOVA and Bonferroni post hoc analysis. […]
# GluN1/GluN2D = GluN1/GluN2D (Rattus norvegicus, UniProt P35439+Q62645)
# Sequence of GluN1/GluN2D (Q62645 28-1323, other chains not shown): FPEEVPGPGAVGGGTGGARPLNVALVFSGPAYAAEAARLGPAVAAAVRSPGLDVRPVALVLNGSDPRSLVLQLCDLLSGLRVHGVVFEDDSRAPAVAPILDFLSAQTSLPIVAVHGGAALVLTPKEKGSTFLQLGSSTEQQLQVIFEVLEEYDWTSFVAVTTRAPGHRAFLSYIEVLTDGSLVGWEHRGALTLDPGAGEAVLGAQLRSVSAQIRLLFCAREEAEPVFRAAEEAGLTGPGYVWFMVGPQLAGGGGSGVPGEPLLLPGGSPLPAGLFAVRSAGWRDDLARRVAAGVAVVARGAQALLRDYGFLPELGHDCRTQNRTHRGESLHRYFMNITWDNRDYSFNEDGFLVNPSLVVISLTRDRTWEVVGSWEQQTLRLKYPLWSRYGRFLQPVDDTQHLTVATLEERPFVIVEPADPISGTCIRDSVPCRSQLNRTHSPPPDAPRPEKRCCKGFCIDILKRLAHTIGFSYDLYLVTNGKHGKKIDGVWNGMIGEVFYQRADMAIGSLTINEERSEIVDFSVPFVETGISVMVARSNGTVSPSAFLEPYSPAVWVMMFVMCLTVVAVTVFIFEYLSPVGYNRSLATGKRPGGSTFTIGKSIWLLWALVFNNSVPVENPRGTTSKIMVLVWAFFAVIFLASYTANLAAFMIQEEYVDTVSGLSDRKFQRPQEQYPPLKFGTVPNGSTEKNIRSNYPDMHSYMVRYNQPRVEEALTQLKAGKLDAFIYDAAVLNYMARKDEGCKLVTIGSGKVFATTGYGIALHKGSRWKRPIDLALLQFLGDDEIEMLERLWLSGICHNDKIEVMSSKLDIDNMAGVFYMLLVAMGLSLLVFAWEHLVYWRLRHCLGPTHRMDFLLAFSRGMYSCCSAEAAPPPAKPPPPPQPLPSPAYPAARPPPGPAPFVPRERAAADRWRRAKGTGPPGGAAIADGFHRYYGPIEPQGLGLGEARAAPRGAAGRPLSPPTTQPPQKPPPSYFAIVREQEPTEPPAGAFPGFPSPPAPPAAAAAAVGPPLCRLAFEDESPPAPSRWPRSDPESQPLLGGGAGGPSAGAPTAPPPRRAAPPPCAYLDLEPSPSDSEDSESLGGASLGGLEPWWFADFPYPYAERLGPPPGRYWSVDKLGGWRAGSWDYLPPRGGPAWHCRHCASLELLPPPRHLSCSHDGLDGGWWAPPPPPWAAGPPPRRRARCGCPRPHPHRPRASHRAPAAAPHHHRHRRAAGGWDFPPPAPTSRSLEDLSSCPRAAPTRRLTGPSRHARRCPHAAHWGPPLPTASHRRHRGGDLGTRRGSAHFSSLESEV
# GluN1/GluN2C = GluN1/GluN2C (Rattus norvegicus, UniProt P35439+Q00961)
# Sequence of GluN1/GluN2C (Q00961 20-1237, other chains not shown): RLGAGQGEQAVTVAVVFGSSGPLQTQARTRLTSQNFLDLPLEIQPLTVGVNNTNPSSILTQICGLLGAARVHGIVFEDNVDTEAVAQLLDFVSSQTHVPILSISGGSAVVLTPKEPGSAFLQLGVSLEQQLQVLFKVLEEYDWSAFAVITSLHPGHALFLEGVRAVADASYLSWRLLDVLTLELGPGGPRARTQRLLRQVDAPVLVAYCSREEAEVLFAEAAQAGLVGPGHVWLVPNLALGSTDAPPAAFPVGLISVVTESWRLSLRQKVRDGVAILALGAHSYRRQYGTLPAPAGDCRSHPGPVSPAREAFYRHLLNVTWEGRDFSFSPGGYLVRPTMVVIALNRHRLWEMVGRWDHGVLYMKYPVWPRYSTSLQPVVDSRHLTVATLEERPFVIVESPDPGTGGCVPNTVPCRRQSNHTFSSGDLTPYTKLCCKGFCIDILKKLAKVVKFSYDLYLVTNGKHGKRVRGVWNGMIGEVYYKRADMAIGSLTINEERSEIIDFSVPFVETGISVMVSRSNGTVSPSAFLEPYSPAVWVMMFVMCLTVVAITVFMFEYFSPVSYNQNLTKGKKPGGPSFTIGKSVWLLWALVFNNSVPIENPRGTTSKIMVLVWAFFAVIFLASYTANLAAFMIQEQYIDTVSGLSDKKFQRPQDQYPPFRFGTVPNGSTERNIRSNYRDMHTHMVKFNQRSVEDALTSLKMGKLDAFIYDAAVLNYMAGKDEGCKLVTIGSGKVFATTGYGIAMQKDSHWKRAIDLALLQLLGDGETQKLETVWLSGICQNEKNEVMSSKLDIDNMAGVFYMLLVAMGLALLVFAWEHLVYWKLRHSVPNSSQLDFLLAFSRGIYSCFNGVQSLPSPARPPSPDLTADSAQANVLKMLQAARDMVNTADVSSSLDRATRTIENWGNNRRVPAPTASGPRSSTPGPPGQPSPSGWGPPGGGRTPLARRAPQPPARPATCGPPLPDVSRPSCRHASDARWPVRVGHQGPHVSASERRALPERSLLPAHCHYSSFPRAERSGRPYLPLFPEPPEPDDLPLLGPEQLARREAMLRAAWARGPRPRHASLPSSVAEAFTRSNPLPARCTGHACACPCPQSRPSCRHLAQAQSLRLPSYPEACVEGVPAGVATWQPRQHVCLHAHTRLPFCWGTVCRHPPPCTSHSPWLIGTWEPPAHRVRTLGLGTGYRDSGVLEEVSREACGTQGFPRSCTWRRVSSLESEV
# Sigma1 (σ1) [2] = biological target: Sigma1 (σ1) (Homo sapiens, UniProt Q99720); assay: Radioligand binding assay (NIMH PDSP)
# Sequence of Sigma1 (σ1) (Homo sapiens, UniProt Q99720) (Q99720 whole entry): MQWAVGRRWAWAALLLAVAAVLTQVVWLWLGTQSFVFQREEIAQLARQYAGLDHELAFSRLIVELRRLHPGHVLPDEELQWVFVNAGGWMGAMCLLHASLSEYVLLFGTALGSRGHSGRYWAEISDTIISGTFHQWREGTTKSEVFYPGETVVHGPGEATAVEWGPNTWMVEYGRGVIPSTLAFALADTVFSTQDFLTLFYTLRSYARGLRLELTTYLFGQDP
# Sigma1 (σ1) [3] = assay: Radioligand binding assay (NIMH PDSP); design: species or system human; details: ratio of Ki to the IC50 for EU93-108 (555 nM) at GluN2B
# Sprague-Dawley rats = assay: Chung spinal nerve ligation model of allodynia; format: in vivo; details: male rats, 10 mg/kg i.p., n=10
# Protocol: Methods for Chung Spinal Nerve Ligation
# The Chung spinal nerve ligation model was implemented by Algos Therapeutics. Male Sprague-Dawley rats (Hsd:Sprague-Dawley®™SD®™, Harlan, Indianapolis, Indiana, U.S.A.) weighing 222 ± 1 g were housed three per cage and given ad libitum access to food and water. Animal holding rooms operated on a 12:12h light/dark schedule for the entire duration of the study. The animal colony was maintained at 21 °C and 60% humidity. All experiments were conducted in accordance with the International Association for the Study of Pain guidelines and were approved by the University of Minnesota Animal Care and Use Committee.
# Allodynia was induced via the Chung spinal nerve ligation (SNL) method116 in which the animals were anesthetized with isoflurane, the left L5 transverse process was removed, then the L5 and L6 spinal nerves were tightly ligated with 6-0 silk suture. Finally, the wound was closed with internal sutures and external staples. Allodynia was assessed using 8 Semmes-Weinstein filaments (Stoelting, Wood Dale, IL, USA) with varying stiffness (0.4, 0.7, 1.2, 2.0, 3.6, 5.5, 8.5, and 15 g) following the up-down method117 first published by Chaplan et al. in 1994. Baseline measurements were taken two weeks following SNL and prior to compound administration. Measurements were also taken 30, 60, 120 and 240 minutes post intraperitoneal compound injection. […]
# [4] = agonist 100 µM glutamate, 30 µM glycine, mean ± SEM
# [5] = read-out: Mean % Inhibition by 10 μM EU93-108
# Sequence of diheteromeric human GluN1/GluN2B/GluN2B (h2B/h2B) (Q13224 27-1484, other chains not shown): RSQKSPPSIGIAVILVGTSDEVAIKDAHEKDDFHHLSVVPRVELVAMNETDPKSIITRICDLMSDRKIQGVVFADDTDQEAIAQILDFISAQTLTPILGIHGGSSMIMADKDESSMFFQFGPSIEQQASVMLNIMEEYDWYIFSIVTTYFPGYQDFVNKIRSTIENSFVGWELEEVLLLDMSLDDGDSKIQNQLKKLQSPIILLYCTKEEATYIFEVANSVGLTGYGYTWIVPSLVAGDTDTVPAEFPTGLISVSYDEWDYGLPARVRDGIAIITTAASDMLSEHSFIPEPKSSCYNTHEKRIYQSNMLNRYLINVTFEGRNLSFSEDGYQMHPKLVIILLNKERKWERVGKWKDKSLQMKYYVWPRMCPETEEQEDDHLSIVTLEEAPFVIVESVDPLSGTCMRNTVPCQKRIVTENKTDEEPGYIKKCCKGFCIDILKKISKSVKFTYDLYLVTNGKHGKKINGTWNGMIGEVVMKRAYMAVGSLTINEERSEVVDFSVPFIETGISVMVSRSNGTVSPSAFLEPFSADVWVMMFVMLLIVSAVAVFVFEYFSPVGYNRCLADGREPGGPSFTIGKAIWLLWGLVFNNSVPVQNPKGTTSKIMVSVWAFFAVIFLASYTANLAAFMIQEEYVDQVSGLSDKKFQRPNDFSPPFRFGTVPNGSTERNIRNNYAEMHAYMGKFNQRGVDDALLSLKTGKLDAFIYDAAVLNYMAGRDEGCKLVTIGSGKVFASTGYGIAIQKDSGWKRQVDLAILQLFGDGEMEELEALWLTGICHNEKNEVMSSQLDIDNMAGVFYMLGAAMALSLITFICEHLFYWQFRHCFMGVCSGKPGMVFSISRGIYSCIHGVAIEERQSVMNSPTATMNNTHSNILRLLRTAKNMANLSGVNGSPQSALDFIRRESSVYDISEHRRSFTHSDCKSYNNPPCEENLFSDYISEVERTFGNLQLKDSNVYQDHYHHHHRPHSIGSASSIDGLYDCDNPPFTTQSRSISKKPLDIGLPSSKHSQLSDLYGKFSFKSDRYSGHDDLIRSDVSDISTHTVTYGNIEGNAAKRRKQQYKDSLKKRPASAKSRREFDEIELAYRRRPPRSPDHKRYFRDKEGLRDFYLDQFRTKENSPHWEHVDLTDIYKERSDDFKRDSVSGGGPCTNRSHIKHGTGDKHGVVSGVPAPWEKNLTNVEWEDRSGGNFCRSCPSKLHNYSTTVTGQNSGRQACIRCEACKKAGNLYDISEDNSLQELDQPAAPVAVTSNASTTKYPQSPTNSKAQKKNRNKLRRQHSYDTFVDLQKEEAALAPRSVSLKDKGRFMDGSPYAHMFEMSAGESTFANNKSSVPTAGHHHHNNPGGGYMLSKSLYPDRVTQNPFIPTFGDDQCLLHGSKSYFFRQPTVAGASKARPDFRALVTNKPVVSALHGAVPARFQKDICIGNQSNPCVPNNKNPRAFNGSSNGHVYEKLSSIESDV
smiles,measurement,setting,value
"CS(=O)(=O)Nc1ccc(OC[C@@H](O)CN2CCN(c3ccc(F)c(F)c3)CC2)cc1 [EU93-108, (S)-N-(4-(3-(4-(3,4-Difluorophenyl)piperazin-1-yl)-2-hydroxypropoxy)phenyl)methanesulfonamide]",IC50,[1],261 nM
same,residual current remaining at 10 μM EU93-108,"[1]; 10 μM, % of maximal response, n = 10",12%
same,nH,"[1]; Hill slope factor of the inhibition curve, Table S1",-1.16
same,Ymin,"[1]; residual response, Table S1, N = 10",12.0
same,"tail flick latency in morphine-tolerant mice, day 5 vs day 4",C57BL/6J mice; co-administered with morphine,did not show a further decrease in latency on day 5
same,"tail flick latency in morphine-tolerant mice, day 5 vs day 4",C57BL/6J mice; given with saline (no morphine),most significant decrease in latency
same,% Control 10 µM EU93-108,GluN1/GluN2D; [4],97 ± 1.9%
same,inhibition at 10 µM,GluN1/GluN2D; [5],4.6 ± 1.2%
same,% Control 10 µM EU93-108,GluN1/GluN2C; [4],97 ± 2.8%
same,inhibition at 10 µM,GluN1/GluN2C; [5],5.3 ± 2.2%
same,inhibition at 10 µM,"Sigma1 (σ1) [2]; primary screen, 10 µM, quadruplicate",69.2%
same,Ki,"Sigma1 (σ1) [2]; secondary screen, binding competition curve",505 nM
same,Ki/IC50 of EU93-108,Sigma1 (σ1) [3],0.91
same,effect on allodynia (von Frey threshold),Sprague-Dawley rats,efficacious

# — paper PMC9983021, “Novel GluN2B-Selective NMDA Receptor Negative Allosteric Modulator Possesses Intrinsic Analgesic Properties and Enhances Analgesia of Morphine in a Rodent Tail Flick Pain Model” (ACS Chemical Neuroscience, 2023)
